# Assay results published in patent publication US9012481B2, “Benzoarylureido compounds, and composition for prevention or treatment of neurodegenerative brain disease containing the same” (Korea Institute of Science and Technology, priority 2009, dated 2015).
# Where two headings read alike, the source gives them in different places.
# What was measured:
# Format in all cases: cell-based
# [1] = system: caspase 3; assay: Immunoblotting of cleaved caspase 3 in beta-amyloid stimulated BV-2 cell culture; settings: beta-amyloid together with KHG25967 (50 nM) compared to beta-amyloid only
# Procedure: (§1) The beta-amyloid treated cells (6-well of 5×10^5 cells/3 Ml, allotted from Pharmacology Division of Ajou University) were collected, and washed with phosphate-buffered saline (PBS). After centrifugation, the cells were dissolved in 0.1 ml of RIPA buffer (containing 150 mM NaCl, 1% NP-40, 0.5% sodium deoxycholate, 0.1% SDS, 50 mM Tris-HCl, pH 7.4, 50 mM glyycerophosphate, 20 mM NaF, 20 mM EGTA, 1 mM DTT, 1 mM Na3VO4, and protease inhibitor) at 4° C. for 15 minutes by strong shaking. The cells were cultivated in ice for 10 minutes, the lysate was centrifuged at 14,000 rpm for 5 minutes. 20 μg of a protein obtained from the cell lysate was heated, and then, electrophoresed on 12% polyacrylamide gel under reduction condition. […]
# (§2) To examine the effect of compound KHG25967 on phosphorylation of ERK (extracellular signal-regulated kinase) and expression of caspase 3 by beta-amyloid, a possible protein expression of ERK1/2 (extracellular signal-regulated kinase 1 & 2) and caspase 3 in BV-2cell culture stimulated with beta-amyloid were measured.
# The activity of caspase 3 was measured as a cleavage at aspartic acid and serine by a stimulation, which is measured using anti-cleavage-caspase 3 antibody (Cell Signaling Technology Inc, Beverly, Mass., USA) through immunoblotting analysis. […]
# [2] = system: BV-2 cells; assay: Cell viability (MTT analysis) of beta-amyloid treated BV-2 cells; settings: for viability at 0.05 µM: Mus musculus
# Procedure: Beta-amyloid (Aβ25-35, Sigma Chemical Co., St. Louis, Mo., USA) was diluted with aseptic desalted water and preservative solution (1 mM, GIBCO), and kept in aliquots at −70° C. To the treatment of beta-amyloid, beta-amyloid preservative solution was diluted to desired concentrations in a treatment medium (DMEM, GIBCO). The reagents were newly provided as a preservative solution (10 mM) under DMSO (dimethylsulfoxide), and diluted in treatment medium to desired concentrations.
# BV-2 microglia cells (allotted from Pharmacology Division of Ajou University) were cultivated in DMEM (Dulbecco's Modified Eagle's Medium) supplemented with 5% fetal bovine serum (Invitrogen, Carlsbad, Calif., USA), sou/Ml penicillin (Invitrogen, Carlsbad, Calif., USA), and 50 μg/Ml streptomycin (Invitrogen, Carlsbad, Calif., USA) under the atmosphere condition with 5% CO2 and 95% air at 37° C. The medium was replaced once a day, the cells were plate-cultured in a density according to the scale of each experiment.
# BV-2 cells were plate-cultured in 96-well plate at the density of 5×10^4, the cell viability was measured according to a conventional MTT analysis method and lactate dehydrogenase (LDH) analysis method. The MTT analysis depends on the metabolism ability of mitochondria of living cell, and reflexes intracellular redox states. The cultured cells were treated with MTT a solution (final concentration: 1 mg/Ml) for 4 hours. Deep blue formazan crystal generated in the original cells was dissolved in a lysis buffer, and then, the absorbance was detected at 595 nm with microplate reader. The LDH activity released from the culture medium was detected, which was evaluated as a cell death index. The culture medium was added to a reagent (test, Sigma Chemical Co, St. Louis, Mo., USA) containing sodium lactate, NADH and sodium pyruvate, and then, the absorbance reduction by NADH at 340 nm was measured. The result was calculated assuming that the LDH activity in homogenate solution of the non-treated control is 100%.
# […] For microscope analysis, BV-2 cells were used in 6-well plate at the density of 5×10^5 cells/well, for MTT analysis, BV-2 cells were used in 96-well plate at the density of 5×10^4 cells/well.
# The obtained prevention effects of KHG25967 compound on toxicity induced by beta-amyloid in BV-2 cells were FIGS. 1A and 1b.
# For MTT analysis, BV-2 cells were used on 96-well plate in the density of 5×10^4 cells/well. The quantitative analysis results (unit: %) for the cell viability obtained by MTT analysis were shown in Table 2, wherein the values are represented by the average of three experiments per each concentration.
# [3] = system: phospho-ERK2; assay: Immunoblotting of phospho-ERK2 in beta-amyloid stimulated BV-2 cell culture; settings: beta-amyloid together with KHG25967 (50 nM) compared to beta-amyloid only
# Procedure: as §1, with “condition. The cells were incubated in blocking buffer (20 mM Tris, pH 7.4-buffer saline containing 0.1% tween 20 containing 5% lipid-free dried milk) for 1 hour, to suppress non-specific binding.” for “condition.”
# as §2, with “measured. […]” for “measured.”
# [4] = system: phospho-ERK1; assay: Immunoblotting of phospho-ERK1 in beta-amyloid stimulated BV-2 cell culture
# Procedure: as §1, with “condition. The cells were incubated in blocking buffer (20 mM Tris, pH 7.4-buffer saline containing 0.1% tween 20 containing 5% lipid-free dried milk) for 1 hour, to suppress non-specific binding.” for “condition.”
# as §2, with “measured. […]” for “measured.”
# [5] = system: tumor necrosis factor-alpha; assay: ELISA of tumor necrosis factor-alpha in LPS-treated BV-2 cells; settings: LPS 1 μg/ml for 2 hours, then 50 nM KHG25967 for 6 hours; compared to LPS only as 100%
# Procedure: (§3) Lipopolysaccharide (LPS)-treated cells (6-well of 5×10^5 cells/3 Ml, Fluka, Sigma-Aldrich, St. Louis, Mo., USA) were collected, and washed with phosphate-buffered saline (PBS). The cells were centrifuged, and then dissolved in pro-prep lysis buffer at 4° C. Interleukin-1 beta and tumor necrosis factor-alpha in the cell lysis solution wherein the cells were dissolved were measured by enzyme-linked immunosorbent analysis plate (R&D systems inc, Minneapolis, Minn., USA). The absorbance at 450 nm was measured using microplate reader. In addition, cytokine was measured using a cytokine measuring system (R&D systems inc, Minneapolis, Minn., USA).
# (§4) BV-2 cells were pre-treated with 1 μg/ml of LPS (Fluka, Sigma-Aldrich, St. Louis, Mo., USA) for 2 hours, and then, further treated with 50 nM KHG25967 for 6 hours. The changed amounts of cytokines of tumor necrosis factor-alpha and interleukin-1beta were measured from lysate solution where the cells were dissolved in cell lysate solution (Intron Biotechnology, Seoul, Korea).
# [6] = system: interleukin-1beta; assay: ELISA of interleukin-1beta in LPS-treated BV-2 cells; settings: LPS 1 μg/ml for 2 hours, then 50 nM KHG25967 for 6 hours; compared to LPS only as 100%
# Procedure: as §3, §4
smiles,measurement,setting,value
"O=C(O)CNC(=O)Nc1nc2ccccc2s1 [KHG25967, 2-(3-benzo[d]thiazole-2-ylureido)acetic acid]",reduction of expression level of cleavage-caspase 3 (FIG. 2C),[1],93%
same,"protection against nervous cell degeneration by beta-amyloid, compound pre-treated","[2]; KHG25967 pre-treated prior to the addition of beta-amyloid, similar to treatment after beta-amyloid",shows a protective effect against nervous degeneration
same,viability at 0.05 µM,"[2]; BV-2, 50 nM KHG25967 for 24 hours after 50 μM beta-amyloid for 2 hours, beta-amyloid only control 35%, read-out: cell viability (FIG. 1B, MTT analysis)",83%
same,viability at 0.05 µM,"[2]; compound 50 nM for 24 hours after 50 μM beta-amyloid for 2 hours, BV-2 cells, average of three experiments, read-out: cell viability by MTT analysis",83%
same,reduction of expression level of phospho-ERK2 (FIG. 2B),[3],70%
same,reduction of expression level of phospho-ERK1 (FIG. 2B),[4]; beta-amyloid together with KHG25967 (50 nM) compared to beta-amyloid only,90%
same,"increase of phospho-ERK1/2 (Western blot, FIG. 2A)",[4]; culture treated with beta-amyloid in the presence of 50 nM KHG25967,considerably weakened
same,suppression of tumor necrosis factor-alpha level (FIG. 3B),[5],61%
same,suppression of interleukin-1beta level (FIG. 3A),[6],70%
